Measurements published in ChEMBL document CHEMBL3808304, “Design, Synthesis, and Biological Evaluation of Indoline and Indole Derivatives as Potent and Selective α1A-Adrenoceptor Antagonists” (J Med Chem, 2016).

What was measured:
Format in all cases: ADME, organism-based
[1] = Cmax in rat at 20 mg/kg, po; design: dose 20 mg/kg, route oral; details: in vivo
[2] = Half life in rat at 10 mg/kg, iv; details: in vivo
[3] = Oral bioavailability in rat at 20 mg/kg; details: in vivo
[4] = Cmax in rat at 10 mg/kg, iv; design: dose 10 mg/kg, route intravenous; details: in vivo
[5] = AUC (0 to infinity) in rat at 20 mg/kg, po; design: dose 20 mg/kg, route oral, time infinity; details: in vivo
[6] = Apparent clearance in rat at 10 mg/kg, iv; details: in vivo, read-out: CL(app) (converted)
[7] = Tmax in rat at 10 mg/kg, iv; details: in vivo
[8] = Half life in rat at 20 mg/kg, po; details: in vivo
[9] = MRT in rat at 10 mg/kg, iv; details: in vivo
[10] = MRT in rat at 20 mg/kg, po; details: in vivo
[11] = AUC (0 to infinity) in rat at 10 mg/kg, iv; design: dose 10 mg/kg, time infinity, route intravenous; details: in vivo
[12] = Tmax in rat at 20 mg/kg, po; details: in vivo

SMILES	Cmax [1] [ng/mL]	half-life [2] [h]	bioavailability [3] [%]	Cmax [4] [ng/mL]	AUC(0-inf) [5] [ng·h/mL]	clearance [6] [mL/min/kg]	Tmax [7] [min]	half-life [8] [h]	MRT [9] [h]	MRT [10] [h]	AUC(0-inf) [11] [ng·h/mL]	Tmax [12] [h]
Cc1ccc(OCC(F)(F)F)c(OCCN[C@H](C)Cc2cc(C(N)=O)c3c(ccn3CCCO)c2)c1	109	1.1	7	2430	613	37.9	4.98	1.22	2.94	3.54	4400	0.5
C[C@H](Cc1cc2c(c(C(N)=O)c1)N(CCCO)CC2)NCCOc1cc(Cl)ccc1OCC(F)(F)F	152	1.63	24.3	3000	1700	47.5	4.98	4.67	2.34	6.22	3510	4
